Results: US5817800A, “Inhibitors of β-glucuronidase and their use in the treatment of carcinamatosis and inflammation” (Hoechst Aktiengesellschaft, priority 1996, dated 1998)
pIC50: −log10 of the molar value. Where a name gives a salt, the structure may show the parent alone.

Biological target: T1, human β-glucuronidase (Homo sapiens, UniProt P08236)
T1 sequence (P08236 23-651): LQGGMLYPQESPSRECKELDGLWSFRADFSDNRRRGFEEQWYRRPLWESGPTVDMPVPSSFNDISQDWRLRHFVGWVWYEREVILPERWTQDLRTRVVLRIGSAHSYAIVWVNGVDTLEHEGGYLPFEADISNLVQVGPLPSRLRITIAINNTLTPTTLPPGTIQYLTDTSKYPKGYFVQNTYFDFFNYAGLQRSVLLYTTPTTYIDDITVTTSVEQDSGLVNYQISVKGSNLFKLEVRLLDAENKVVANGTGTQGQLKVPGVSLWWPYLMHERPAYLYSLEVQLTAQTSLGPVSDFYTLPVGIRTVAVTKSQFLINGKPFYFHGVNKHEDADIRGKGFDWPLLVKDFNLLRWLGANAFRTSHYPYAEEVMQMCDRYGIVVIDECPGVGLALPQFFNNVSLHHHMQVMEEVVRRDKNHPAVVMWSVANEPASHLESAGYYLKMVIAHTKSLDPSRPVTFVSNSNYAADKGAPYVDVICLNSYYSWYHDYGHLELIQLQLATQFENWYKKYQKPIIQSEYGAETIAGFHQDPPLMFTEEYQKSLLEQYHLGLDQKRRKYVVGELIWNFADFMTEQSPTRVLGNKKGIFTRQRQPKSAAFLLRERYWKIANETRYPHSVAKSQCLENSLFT
Assay: Inhibition of human β-glucuronidase (4-methylumbelliferyl-β-D-glucuronide substrate, fluorescence)
Type: biochemical
Settings: substrate 4-methylumbelliferyl-β-D-glucuronide; 200 mM sodium acetate, 0.1 mg/ml BSA, pH 5; 10 min, 37° C.
Protocol: The inhibition of human β-glucuronidase was determined using 4-methylumbelliferyl-β-D-glucuronide as a substrate. The test mixture contained 75 μl of 2.5 mM 4-methylumbelliferyl-β-D-glucuronide, 25 μl of enzyme (0.6 μg/ml) and 10 μl of the compound of the formula I in a concentration range from 0.0001 to 100 mM, all in 200 mM sodium acetate buffer and 0.1 mg/ml bovine serum albumin (BSA), pH 5. After a 10-minute incubation at 37° C., the mixture was stopped with 1.5 ml of 0.2 M glycine/0.2% SDS, pH 11.7. The methylumbelliferone released by the enzyme was measured in a fluorescence photometer at 360 nm excitation and 450 nm emission wavelength.
The IC50 -values were calculated from the inhibitor dilution series using the software program GraFit 2.0 (Erithacus Software Ltd.).

Row | Compound | pIC50
1 | O=C(Nc1ccccc1)O/N=C1\O[C@H](C(=O)O)[C@@H](O)[C@H](O)[C@H]1O [Example 1, (Z)-O-(D-Glucopyranuronosylidene)amino N-phenylcarbamate (sodium salt)] | 6.22
2 | O=C(Nc1ccccc1)O/N=C1\O[C@H](P(=O)(O)O)[C@@H](O)[C@H](O)[C@H]1O [Example 2, Sodium (5R,Z)-O-(5-C-phosphonato-D-xylopyranosylidene) amino N-phenylcarbamate] | 1.96
